Oligonucleotides are written 5' to 3', each unit as a sugar letter and its base; * is a phosphorothioate linkage, no mark a phosphodiester; rarer units and linkages stand in square brackets, end groups in braces. Plain capitals give the bases only. l = locked nucleic acid (LNA); [5mC] = 5-methylcytosine; d = 2'-deoxy (DNA)

Series [1] concerns Survivin full length, Survivin2B and SurvivinΔex3 mRNA. As to the kind of experiment: Survivin splice variant mRNA expression by real-time PCR in 15PC3 cells. The series is classed as cell-based, human. To be noted: 5 nM, normalised to GAPDH, relative to mock. Here is the method:
Cell culturing and transfections: 15PC3 cells were seeded in 12-well plates and grown for two days at 37° C. (5% CO2) in DMEM supplemented with 10% FBS, Glutamax I and Gentamicin. When the cells were 60-70% confluent, they were transfected in duplicates with different concentrations of oligonucleotides (0.2-25 nM) using Lipofectamine 2000 (10 μg/ml). Transfections were carried out essentially as described by Dean et al. (1994, JBC 269:16416-16424). In short, cells were incubated for 10 min. with Lipofectamine in OptiMEM followed by addition of oligonucleotide to a total volume of 0.5 ml transfection mix per well. […]
To determine the relative Survivin mRNA level in oligonucleotide treated and untreated cells, the generated cDNA was used in quantitative PCR analysis using an iCycler from BioRad. The cDNA was diluted 5-fold and 8 μl was mixed with 52 μl Taqman probe master mix containing 30 μl Platinum Quantitative PCR SuperMix UDG 2×PCR master mix (Invitrogen), 3 μl 20× Taqman probe and primer mix (forward primer: 5′[…] (SEQ ID NO:29), final 0.9 μM. Reverse primer: 5′[…] (SEQ ID NO:30), final 0.6 μM and taqman probe: FAM-[…]-TAMRA (SEQ ID NO:31), final 0.1 μM) and 19 μl H2O. […]
The primers and probe were obtained from Proligonucleotide (France). […] Relative quantities of Survivin mRNA were determined from the calculated threshold cycle using the iCycler IQ Real Time Detection System software.
For orientation: In qPCR the cycle at which signal appears reflects the starting amount.

The nature of series [2]: Stability in human plasma. The series is classed as in vitro ADME. To be noted: 20 μM, 37° C., up to 96 hours. Here is the method:
(§1) Stability of 20 μM SEQ ID NO. 2 and SEQ ID NO. 24 in human and mouse plasma (Li-Heparine (Taconic, M&B)) at 37° C. at different time aliquots: 0, 1, 2, 4, 24, 48 and 96 hours. A commercially available ladder was also included (10 and 20 mer are visible on the PAGE). (see FIG. 1)

The nature of series [3]: Stability in mouse plasma. The series is classed as in vitro ADME. To be noted: 20 μM, 37° C., up to 96 hours. How it is done: as §1
Series [4] concerns 15PC3 cells. The experiment in a line: Caspase 3/7 assay, oligonucleotide in combination with Taxol. The series is classed as cell-based, human. To be noted: 10 nM oligonucleotide with Taxol (10 nM or 100 nM), 48 hours and 72 hours. Here is the method:
Cell culturing: Human prostate cancer 15PC3 cells (kindly provided by Dr. F Baas, Neurozintuigen Laboratory, AMC, The Netherlands) were seeded to a density of 8×10E5 cells in T75-flasks and grown for two days at 37° C. and 5% CO2 in DMEM supplemented with 10% FBS, Glutamax and Gentamicin. Two days following seeding cells were transfected with 2-10 nM SEQ ID NO. 2 using Lipofectamine at a final conc. of 7.5 μg/ml. Transfections were carried out as described by Dean et al. (1994, JBC 269 p. 16416 16424). In short cells were incubated with Lipofectamine diluted in OptiMEM for 7-10 min followed by the addition of the oligonucleotide to total volume of 8.7 ml per T75 flask. […] Cells were harvested for either mRNA extraction, Caspase 3/7 assay or fixed, stained with PI and analysed by FACS analysis.
Caspase 3/7 assay: An equal amount of 15PC3 cells ranging from 2500-10000 cells were harvested by centrifugation at the indicated periods and plated in white 96 well plates (Nunc 136101) in DMEM. 100 μl of the highly sensitive Caspase 3/7-Glo™ Reagent (Promega) was added directly to the cells in 96 well and plates were incubated for 1 hour before recording luminescence (luciferase activity) in Luminoskan Ascent instrument from Thermo Labsystems after further 1 min lag period. The luciferase activity is measured as Relative Light Units per seconds (RLU/s). […]

Series [5] deals with rats. The experiment in a line: i.v. acute toxicity study in rats. The series is classed as in vivo. From the text: For SEQ ID NO. 2 the following was found among others in preclinical toxicity studies: […]
Series [6] concerns Bcl-2 mRNA. As to the kind of experiment: Bcl-2 mRNA expression by real-time PCR in 15PC3 cells. The series is classed as cell-based, human. How it is done: To determine the relative Survivin mRNA level in oligonucleotide treated and untreated cells, the generated cDNA was used in quantitative PCR analysis using an iCycler from BioRad. The cDNA was diluted 5-fold and 8 μl was mixed with 52 μl Taqman probe master mix containing 30 μl Platinum Quantitative PCR SuperMix UDG 2×PCR master mix (Invitrogen), 3 μl 20× Taqman probe and primer mix (forward primer: 5′[…] (SEQ ID NO:29), final 0.9 μM. Reverse primer: 5′[…] (SEQ ID NO:30), final 0.6 μM and taqman probe: FAM-[…]-TAMRA (SEQ ID NO:31), final 0.1 μM) and 19 μl H2O. The 60 μl were dispersed in two wells (96 well plates) with 25 μl in each well. For human Bcl-2 the PCR primers were:
forward primer: 5′ […] 3′ (final concentration in the assay; 0.6 μM) (SEQ ID NO: 32) reverse primer: 5′ […] 3′ (final concentration in the assay; 0.6 μM) (SEQ ID NO: 33) and the PCR probe was: 5′ FAM-[…]-TAMRA 3′ (final concentration in the assay; 0.1 μM) (SEQ ID NO: 34). […]
The primers and probe were obtained from […] (France). To normalize any variance in sample preparation, the endogenous GAPDH mRNA was quantified using a pre-developed Taqman assay reagent from Applied Biosystems (4310884E) according to manufacturer's Instructions. […] Relative quantities of Survivin mRNA were determined from the calculated threshold cycle using the iCycler IQ Real Time Detection System software.

For “5′-^MeCsTs^MeCsAsastscscsastsgsgs^MeCsAsGsc-3′ (l[5mC]*lT*l[5mC]*lA*dA*dT*dC*dC*dA*dT*dG*dG*l[5mC]*lA*lG*dC) [SEQ ID NO. 2]”, the “Expression of the 3 isoforms of Survivin mRNA” value in series [1] is given as “able to down-regulate all expressed isoforms of human Survivin”. Moreover, the “Stability in human plasma (degradation products)” value in series [2] is given as “No degradation products”. Moreover, the “Stability in mouse plasma (degradation products)” value in series [3] is on record as “No degradation products”. Also, the “Induction of apoptosis (Caspase 3/7 activity) in combination with Taxol” value in series [4] is on record as “clear additive effect on the induction of apoptosis”. The substance further had a lowest lethal dose in series [5] of 1000 mg/kg. Also, the “Bcl-2 mRNA expression” value in series [6] (10 nM, 24 hours, 15PC3 cells, single agent or combined with control oligonucleotides) was “have effects on Survivin and Bcl-2 expression”. Besides, the Bcl-2 down-regulation entry in series [6] (summary statement, conditions not given) is “down-regulation of Bcl-2”.
